Laboratory results published in patent US7468432B2, “Cobalamin conjugates useful as antitumor agents” (Mayo Foundation for Medical Education and Research, priority 1999, dated 2008).

Legend:
transcobalamin proteins = test: modified unsaturated Vitamin B12 binding capacity (UBBC) assay; parameters: species or system human; conditions: 0.4 ml patient serum treated with 4 μL analog (10 μg per ml normal saline), 20 minutes at room temperature; blocking of Co-57 cyanocobalamin binding; 5 patients, n=10
Description: In vitro biological activity of the carborane cyanocobalamin analogs. To assess the in vitro binding of the carborane cyanocobalamin (Example 1, CCC) and DTPA-aminopropylcobalamin (Example 3, DAPC) analogs to the transcobalamin proteins, the unsaturated Vitamin B12 binding capacity (UBBC) assay (see D. A. Collins and H. P. C. Hogenkamp, J. Nuclear Medicine, 1997, 38, 717-723) was performed. Serum was obtained from 5 patients being evaluated for pernicious anemia at the Mayo Clinic. The patients' serum first underwent a routine clinical UBBC as previously described. To determine if the CCC and DAPC analogs would inhibit Co-57 cyanocobalamin from binding to the transcobalamin proteins, the excess serum from the 5 patients underwent modified UBBC.
Specifically, under dim light, 0.4 ml serum was treated with 4 μL (concentration 10 μg CCC per ml normal saline) of the 2 CCC analogs, carborane-d-cyano-cobalamin and carborane-b-cyanocobalamin, and DAPC. The analogs were incubated for 20 minutes at room temperature with the patient's serum. Both the clinical run and the analog treated samples were assayed for UBBC as usual.
The percent PB of the analogs to transcobalamin protein was calculated as follows (PB=100−CCCUBBC cpm/clinical UBBC cpm×100). […]

[1] = test system: African green monkey (Vero) cells; conditions: concentration level of 1600 μM; cited from earlier work
cells = conditions: in vitro neutron radiation of cells grown in the presence of compound; cited from earlier work

Row | Compound | average percent binding (PB) of the analogs to transcobalamin protein (transcobalamin proteins) [%] | cytotoxicity [1] | biological effect equivalent to a concentration of 10B (cells) [μg ^10B/g]
1 | DTPA-aminopropylcarbalamin [DAPC] | 98.21 |  | 
2 | O=c1[nH]c(=O)n([C@H]2C[C@H](O)[C@@H](CO)O2)cc1B(O)O [5-dihydroloxyboryl-2′-deoxyuridine] |  | not cytotoxic | ~6
